In patent publication US9637453B2, “3-spirocyclic-6-hydroxamic acid tetralins as HDAC inhibitors” (Forma Therapeutics, Inc., priority 2015, dated 2017):

Columns and labels:
[1] = target: T1, Full length human recombinant HDAC11 (Homo sapiens, UniProt Q96DB2); experiment: In vitro histone deacetylase assay, enzymatic HDAC11 (electrophoretic mobility shift assay); assay type: biochemical; conditions: 10 nM HDAC11; 2 μM peptide substrate FAM-RHKK(tri-fluor-Ac)—NH2; 25° C.; 12 concentrations; read-out: HDAC11 Activity Range (IC50)
T1 construct: Full length human recombinant HDAC6 and HDAC11 proteins were expressed in baculoviral system
T1 sequence (Q96DB2 1-347): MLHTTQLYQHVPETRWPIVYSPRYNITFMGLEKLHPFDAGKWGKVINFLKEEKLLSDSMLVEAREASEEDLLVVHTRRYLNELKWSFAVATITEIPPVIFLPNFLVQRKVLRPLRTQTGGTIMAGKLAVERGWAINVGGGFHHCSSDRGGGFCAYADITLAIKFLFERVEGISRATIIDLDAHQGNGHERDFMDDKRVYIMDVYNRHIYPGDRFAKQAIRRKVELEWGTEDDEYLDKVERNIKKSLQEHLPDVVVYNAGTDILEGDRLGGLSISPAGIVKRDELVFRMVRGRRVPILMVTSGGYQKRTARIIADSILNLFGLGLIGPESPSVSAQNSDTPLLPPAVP
Experimental: (§1) The enzymatic HDAC6 and HDAC11 assays were performed using electrophoretic mobility shift assay. Full length human recombinant HDAC6 and HDAC11 proteins were expressed in baculoviral system and purified by affinity chromatography. The enzymatic reactions were assembled in 384 well plates in a total volume of 25 μL in a reaction buffer composing: 100 mM HEPES, pH 7.5, 25 mM KCl, 0.1% bovine serum albumin, 0.01% Triton X-100, 1% DMSO (from compounds) 2 μM of the fluorescently labeled peptide substrate and enzyme. The enzymes were added at a final concentration of 1 nM for HDAC6, and 10 nM for HDAC11. The peptide substrate FAM-RHKK(Ac)—NH2 was used for HDAC6, and FAM-RHKK(tri-fluor-Ac)—NH2 for HDAC11. The compounds were tested at 12 concentrations spaced by 3× dilution intervals. Negative control samples (0%-inhibition in the absence of inhibitor) and positive control samples (100%-inhibition) were assembled in replicates of four in each assay plate. The reactions were incubated at 25° C. and quenched by the addition of 45 μL of termination buffer (100 mM HEPES, pH 7.5, 0.01% Triton X-100, 0.05% SDS).
(§2) The terminated assay plates were analyzed on LabChip® 3000 microfluidic electrophoresis instrument (Perkin Elmer/Caliper Life Sciences). The fluorescence intensity of the electrophoretically separated de-acetylated product and substrate peptide was measured. Activity in each sample was determined as the product to sum ratio (PSR): P/(S+P), where P is the peak height of the product peptide and S is the peak height of the substrate peptide. Percent inhibition (Pinh) is determined using following equation:
(§3) Pinh=(PSR0%−PSRinh)/(PSR0%−PSR100%)*100, where PSRinh is the product sum ratio in the presence of inhibitor, PSR0% is the average product sum ration in the absence of inhibitor and PSR100% is the average product sum ratio in 100%-inhibition control samples. The IC50 values of inhibitors were determined by fitting the %-inhibition curves with 4 parameter dose-response model using XLfit 4 software.
(§4) As set forth in Table-26 and Table-27, below, IC5o values are defined as follows: IC50≦0.1 μM (+++); IC50>0.1 μM and ≦0.5 μM (++); IC50>0.5 μM (+).

[2] = target: T2, Full length human recombinant HDAC6 (Homo sapiens, UniProt Q9UBN7); experiment: In vitro histone deacetylase assay, enzymatic HDAC6 (electrophoretic mobility shift assay); assay type: biochemical; conditions: 1 nM HDAC6; 2 μM peptide substrate FAM-RHKK(Ac)—NH2; 25° C.; 12 concentrations; read-out: HDAC6 Activity Range (IC50)
T2 construct: Full length human recombinant HDAC6 and HDAC11 proteins were expressed in baculoviral system
T2 sequence (Q9UBN7 1-1215): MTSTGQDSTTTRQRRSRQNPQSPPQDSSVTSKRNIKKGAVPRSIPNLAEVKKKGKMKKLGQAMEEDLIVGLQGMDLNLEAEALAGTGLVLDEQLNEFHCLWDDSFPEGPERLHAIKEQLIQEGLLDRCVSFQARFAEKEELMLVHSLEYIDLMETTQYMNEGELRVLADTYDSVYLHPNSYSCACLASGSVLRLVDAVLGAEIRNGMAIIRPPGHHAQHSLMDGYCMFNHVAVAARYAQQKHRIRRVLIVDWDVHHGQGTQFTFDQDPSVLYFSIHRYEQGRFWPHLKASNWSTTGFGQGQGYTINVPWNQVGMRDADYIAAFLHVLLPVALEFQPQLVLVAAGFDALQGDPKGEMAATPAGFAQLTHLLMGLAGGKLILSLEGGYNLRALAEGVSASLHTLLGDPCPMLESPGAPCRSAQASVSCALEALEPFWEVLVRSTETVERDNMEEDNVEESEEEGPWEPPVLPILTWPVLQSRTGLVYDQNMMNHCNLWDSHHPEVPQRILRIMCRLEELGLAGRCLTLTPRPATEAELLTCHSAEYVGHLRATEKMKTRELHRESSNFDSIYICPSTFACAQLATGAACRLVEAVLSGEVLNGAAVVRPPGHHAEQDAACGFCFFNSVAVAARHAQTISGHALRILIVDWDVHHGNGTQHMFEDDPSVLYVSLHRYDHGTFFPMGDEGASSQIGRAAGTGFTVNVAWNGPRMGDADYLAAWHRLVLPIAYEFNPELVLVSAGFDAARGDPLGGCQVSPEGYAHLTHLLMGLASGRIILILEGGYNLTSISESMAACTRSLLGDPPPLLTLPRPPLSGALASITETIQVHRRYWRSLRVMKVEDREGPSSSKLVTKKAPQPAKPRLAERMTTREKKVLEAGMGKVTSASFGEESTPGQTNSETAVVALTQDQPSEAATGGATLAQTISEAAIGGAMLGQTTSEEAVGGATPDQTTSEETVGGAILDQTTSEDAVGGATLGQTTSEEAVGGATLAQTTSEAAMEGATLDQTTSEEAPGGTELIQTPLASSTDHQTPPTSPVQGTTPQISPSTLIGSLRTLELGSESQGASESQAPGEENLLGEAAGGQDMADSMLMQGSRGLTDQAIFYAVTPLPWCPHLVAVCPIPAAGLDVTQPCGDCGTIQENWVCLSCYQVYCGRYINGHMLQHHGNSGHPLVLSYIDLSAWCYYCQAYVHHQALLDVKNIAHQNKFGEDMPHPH
Experimental: as §1, §2, §3, §4

Structure (SMILES) | IC50 [1] | IC50 [2]
O=C(NO)c1ccc2c(c1)C[C@@]1(CC2)CCN(Cc2ccc(OC(F)(F)F)cc2)C1=O [Compound I-73, (S)—N-hydroxy-2′-oxo-1′-(4-(trifluoromethoxy)benzyl)-3,4-dihydro-1H-spiro[naphthalene-2,3′-pyrrolidine]-7-carboxamide] | > 500 nM | ≤ 100 nM
O=C(NO)c1ccc2c(c1)C[C@@]1(CC2)CCN(Cc2ccccc2)C1=O [Compound I-35, (S)-1′-benzyl-N-hydroxy-2′-oxo-3,4-dihydro-1H-spiro[naphthalene-2,3′-pyrrolidine]-7-carboxamide] | > 500 nM | ≤ 100 nM
O=C(NO)c1ccc2c(c1)C[C@@]1(CC2)CCN(Cc2ccc(F)cc2)C1=O [Compound I-41, (S)-1′-(4-fluorobenzyl)-N-hydroxy-2′-oxo-3,4-dihydro-1H-spiro[naphthalene-2,3′-pyrrolidine]-7-carboxamide] | > 500 nM | ≤ 100 nM
O=C(NO)c1ccc2c(c1)C[C@@]1(CC2)CCN(c2ccc3c(c2)OCO3)C1=O [Compound I-115, (S)-1′-(benzo[d][1,3]dioxol-5-yl)-N-hydroxy-2′-oxo-3,4-dihydro-1H-spiro[naphthalene-2,3′-pyrrolidine]-7-carboxamide] | > 500 nM | ≤ 100 nM
CCN1C[C@@]2(CCc3ccc(C(=O)NO)cc3C2)CC1=O [Compound I-142, (R)-1′-ethyl-N-hydroxy-5′-oxo-3,4-dihydro-1H-spiro[naphthalene-2,3′-pyrrolidine]-7-carboxamide] | > 500 nM | ≤ 100 nM
Cc1ccc(N2CC[C@@]3(CCc4ccc(C(=O)NO)cc4C3)C2=O)c(C)c1 [Compound I-113, (S)-1′-(2,4-dimethylphenyl)-N-hydroxy-2′-oxo-3,4-dihydro-H-spiro[naphthalene-2,3′-pyrrolidine]-7-carboxamide] | > 500 nM | ≤ 100 nM
O=C(NO)c1ccc2c(c1)C[C@@]1(CC2)CCN(Cc2ccc3nonc3c2)C1=O [Compound I-63, (S)-1′-(benzo[c][1,2,5]oxadiazol-5-ylmethyl)-N-hydroxy-2′-oxo-3,4-dihydro-1H-spiro[naphthalene-2,3′-pyrrolidine]-7-carboxamide] | > 500 nM | ≤ 100 nM
O=C(NO)c1ccc2c(c1)CC1(CC2)CCN(C2CCCCC2)C1 (centres unmarked) [Compound I-5, 1′-cyclohexyl-N-hydroxy-3,4-dihydro-1H-spiro[naphthalene-2,3′-pyrrolidine]-7-carboxamide] | > 500 nM | ≤ 100 nM

More lines, now with the values ahead:

IC50 [1] | IC50 [2] | Structure (SMILES)
≤ 100 nM | ≤ 100 nM | O=C(NO)c1ccc2c(c1)CC1(CC2)CCN(Cc2ccc(Cl)c(Cl)c2)C1=O (centres unmarked) [Compound I-21, 1′-(3,4-dichlorobenzyl)-N-hydroxy-2′-oxo-3,4-dihydro-1H-spiro[naphthalene-2,3′-pyrrolidine]-7-carboxamide]
100 to 500 nM | ≤ 100 nM | O=C(NO)c1ccc2c(c1)C[C@]1(CC2)CCN(c2cnc3ccccn23)C1=O [Compound I-111, (R)—N-hydroxy-1′-(imidazo[1,2-a]pyridin-3-yl)-2′-oxo-3,4-dihydro-1H-spiro[naphthalene-2,3′-pyrrolidine]-7-carboxamide]
100 to 500 nM | ≤ 100 nM | O=C(NO)c1ccc2c(c1)C[C@@]1(CC2)CCN(C/C=C/c2ccccc2)C1=O [Compound I-58, (S)-1′-cinnamyl-N-hydroxy-2′-oxo-3,4-dihydro-1H-spiro[naphthalene-2,3′-pyrrolidine]-7-carboxamide]
100 to 500 nM | ≤ 100 nM | O=C(NO)c1ccc2c(c1)C[C@]1(CC2)CCN(Cc2ccccc2)C1=O [Compound I-36, (R)-1′-benzyl-N-hydroxy-2′-oxo-3,4-dihydro-1H-spiro[naphthalene-2,3′-pyrrolidine]-7-carboxamide]
100 to 500 nM | ≤ 100 nM | O=C(NO)c1ccc2c(c1)CC1(CC2)CCN(CC2CCCCC2)C1=O (centres unmarked) [Compound I-23, 1′-(cyclohexylmethyl)-N-hydroxy-2′-oxo-3,4-dihydro-1H-spiro[naphthalene-2,3′-pyrrolidine]-7-carboxamide]
